Measurements from patent US7759510B2, “Platinum complexes and methods of use” (University of South Florida, priority 2003, dated 2010).

Test system: A549 cells
Test: MTT assay, percent survival of A549 cells
Type: cell-based
Details: A549
Procedure: 1. Prepare a suspension of A549 cells at 2×10^5 cells per mL in supplemented DMEM/F12 growth medium.
2. Plate 2×10^4 cells per well in a 96 well cell culture plate by adding 100 μL of stock suspension to each well.
3. For each platinum compound (already in solution), prepare a readily usable stock solution in DMEM/F12 medium.
4. For each compound generate triplicate trials of 0, 10, 20, 30, 40, 50, 60, and 70 μM concentration. This is achieved in situ by adding appropriate volumes of stock solution to each well along with the volume of untreated medium necessary to generate the desired concentration in a final volume of 200 μL.
5. Gently agitate plates to mix contents. Incubate at 37° C., 7% CO2 for 45 hours.
6. Add 20 μL of 5 mg/mL MTT solution (in PBS) to each well.
7. Gently agitate plates to mix contents and incubate an additional 3 hours to allow product development.
8. Remove plates from incubator and agitate to cause settling of formazan product.
9. Aspirate out liquid contents of each well using needle and syringe and discard.
10. Add 200 μL DMSO to each well to dissolve formazan product.
11. Agitate plates until all of the formazan product is in solution and no purple crystals remain on the bottom surface of the wells.
12. Read the absorbance of each well at […] using Varian software for Cary 50 UV-vis Spectrophotometer with fiber optic probe accessory.
(§1) MTT assays are used for the quantitative determination of cellular proliferation and activation and for the quantitation of in vitro tumor cell sensitivity to anti-cancer compounds. The assay is based on the cleavage of the yellow tetrazolium salt MTT into purple colored formazan by metabolically active cells. Solubilized formazan product can be photometrically quantitated using an ELISA plate reader. A decrease in the number of living cells results in a decrease in total metabolic activity which leads to a decrease in color formation. Platinum complexes of the present invention were tested in MTT assays using A549 cells to determine anti-cancer cell activity. […] FIGS. 1, 2, and 4 show percent survival versus platinum complex concentration in graphical form.
as §1, with “FIGS. 8, 9,” for “FIGS. 1, 2,”, “and 11” for “and 4”

SMILES: N.N.[Cl][Pt][Cl] [Cis-Pt, Cis-diammineoplatinum(II) dichloride, reference compound]
- Average Absorbance (Table 1, 10 μM): 2.3196
- Percent Survival (Table 1, 10 μM): 98.2423%
- Average Absorbance (Table 1, 20 μM): 2.3228
- Percent Survival (Table 1, 20 μM): 98.3779%
- Average Absorbance (Table 1, 30 μM): 2.3526
- Percent Survival (Table 1, 30 μM): 99.6400%
- Average Absorbance (Table 1, 40 μM): 2.1315
- Percent Survival (Table 1, 40 μM): 90.2757%
- Average Absorbance (Table 1, 50 μM): 1.8447
- Percent Survival (Table 1, 50 μM): 78.1288%
- Average Absorbance (Table 1, 60 μM): 1.1039
- Percent Survival (Table 1, 60 μM): 46.7536%
- Average Absorbance (Table 1, 70 μM): 0.7118
- Percent Survival (Table 1, 70 μM): 30.1470%
- IC50 (Table 2, linear trend from percent survival vs. concentration data of Table 1, read-out: Calculated IC 50 (uM concentration)): 63.3 µM
- Average Absorbance (Table 3, 10 μM): 2.4665
- Percent Survival (Table 3, 10 μM): 100.9661%
- Average Absorbance (Table 3, 20 μM): 2.4556
- Percent Survival (Table 3, 20 μM): 100.5199%
- Average Absorbance (Table 3, 30 μM): 2.2686
- Percent Survival (Table 3, 30 μM): 92.8650%
- Average Absorbance (Table 3, 40 μM): 1.7575
- Percent Survival (Table 3, 40 μM): 71.9432%
- Average Absorbance (Table 3, 50 μM): 1.2828
- Percent Survival (Table 3, 50 μM): 52.5114%
- Average Absorbance (Table 3, 60 μM): 0.7971
- Percent Survival (Table 3, 60 μM): 32.6293%
- Average Absorbance (Table 3, 70 μM): 0.6718
- Percent Survival (Table 3, 70 μM): 27.5001%
- Average Absorbance (Table 4, 10 μM): 0.5299
- Percent Survival (Table 4, 10 μM): 83.1%
- Average Absorbance (Table 4, 20 μM): 0.6575
- Percent Survival (Table 4, 20 μM): 103.1%
- Average Absorbance (Table 4, 30 μM): 0.497
- Percent Survival (Table 4, 30 μM): 77.95%
- Average Absorbance (Table 4, 40 μM): 0.4763
- Percent Survival (Table 4, 40 μM): 74.69%
- Average Absorbance (Table 4, 50 μM): 0.3644
- Percent Survival (Table 4, 50 μM): 57.14%
- Average Absorbance (Table 4, 60 μM): 0.2814
- Percent Survival (Table 4, 60 μM): 44.13%
- Average Absorbance (Table 4, 70 μM): 0.1854
- Percent Survival (Table 4, 70 μM): 29.07%
- Average Absorbance (Table 6, 10 μM): 2.3196
- Percent Survival (Table 6, 10 μM): 98.2423%
- Average Absorbance (Table 6, 20 μM): 2.3228
- Percent Survival (Table 6, 20 μM): 98.3779%
- Average Absorbance (Table 6, 30 μM): 2.3526
- Percent Survival (Table 6, 30 μM): 99.6400%
- Average Absorbance (Table 6, 40 μM): 2.1315
- Percent Survival (Table 6, 40 μM): 90.2757%
- Average Absorbance (Table 6, 50 μM): 1.8447
- Percent Survival (Table 6, 50 μM): 78.1288%
- Average Absorbance (Table 6, 60 μM): 1.1039
- Percent Survival (Table 6, 60 μM): 46.7536%
- Average Absorbance (Table 6, 70 μM): 0.7118
- Percent Survival (Table 6, 70 μM): 30.1470%
- Average Absorbance (Table 8, 10 μM): 2.4665
- Percent Survival (Table 8, 10 μM): 100.9661%
- Average Absorbance (Table 8, 20 μM): 2.4556
- Percent Survival (Table 8, 20 μM): 100.5199%
- Average Absorbance (Table 8, 30 μM): 2.2686
- Percent Survival (Table 8, 30 μM): 92.8650%
- Average Absorbance (Table 8, 40 μM): 1.7575
- Percent Survival (Table 8, 40 μM): 71.9432%
- Average Absorbance (Table 8, 50 μM): 1.2828
- Percent Survival (Table 8, 50 μM): 52.5114%
- Average Absorbance (Table 8, 60 μM): 0.7971
- Percent Survival (Table 8, 60 μM): 32.6293%
- Average Absorbance (Table 8, 70 μM): 0.6718
- Percent Survival (Table 8, 70 μM): 27.5001%
- Average Absorbance (Table 9, 10 μM): 0.5299
- Percent Survival (Table 9, 10 μM): 83.1%
- Average Absorbance (Table 9, 20 μM): 0.6575
- Percent Survival (Table 9, 20 μM): 103.1096%
- Average Absorbance (Table 9, 30 μM): 0.497
- Percent Survival (Table 9, 30 μM): 77.95%
- Average Absorbance (Table 9, 40 μM): 0.4763
- Percent Survival (Table 9, 40 μM): 74.69%
- Average Absorbance (Table 9, 50 μM): 0.3644
- Percent Survival (Table 9, 50 μM): 57.14%
- Average Absorbance (Table 9, 60 μM): 0.2814
- Percent Survival (Table 9, 60 μM): 44.13%
- Average Absorbance (Table 9, 70 μM): 0.1854
- Percent Survival (Table 9, 70 μM): 29.07%

SMILES: CC(=O)N[C@H]1C(O)O[C@H](CO)[C@@H](O)[C@@H]1O (stereo partly drawn) [N-acetyl glucosamine]
- Average Absorbance (Table 9, 10 μM): 0.6179
- Percent Survival (Table 9, 10 μM): 96.89%
- Average Absorbance (Table 9, 20 μM): 0.378
- Percent Survival (Table 9, 20 μM): 59.27%
- Average Absorbance (Table 9, 30 μM): 0.1735
- Percent Survival (Table 9, 30 μM): 27.21%
- Average Absorbance (Table 9, 40 μM): 0.02397
- Percent Survival (Table 9, 40 μM): 3.758%
- Average Absorbance (Table 9, 50 μM): 0.0397
- Percent Survival (Table 9, 50 μM): 6.226%
- Average Absorbance (Table 9, 60 μM): 0.05523
- Percent Survival (Table 9, 60 μM): 8.662%
- Average Absorbance (Table 9, 70 μM): 0.01897
- Percent Survival (Table 9, 70 μM): 2.974%
